# Calls of active or inactive are those of the source. No cut-off for these calls is given here.
# Experiments:
# [1] = Inhibition of Carbonic anhydrase (unknown origin); set-up: species or system Homo sapiens
# [2] = tested on: H9c2; test: Protection against LPS/hypoxia induced apoptosis in rat H9c2 cells assessed as reduction in necrotic cells at 10 umol/L incubated for 4 hrs under hypoxia condition by AnnexinV-FITC/propidium iodide staining based flow cytometry analysis (reference value: 31.02%); format: functional; set-up: scale not given: the % may be the effect or the level left; conditions: dose 10 µmol/L, at 10 µM
# [3] = tested on: H9c2; test: Protection against LPS/hypoxia induced apoptosis in rat H9c2 cells assessed as reduction in necrotic cells at 10 umol/L incubated for 4 hrs under hypoxia condition in presence of Indomethacin by AnnexinV-FITC/propidium iodide staining based flow cytometry analysis (reference value: 31.02%); format: functional; set-up: scale not given: the % may be the effect or the level left; conditions: dose 10 µmol/L, at 10 µM
# [4] = tested on: H9c2; test: Protection against LPS/hypoxia induced apoptosis in rat H9c2 cells assessed as reduction in red fluorescence by confocal microscopy analysis; format: functional, cell-based
# [5] = tested on: H9c2; test: Protection against LPS/hypoxia induced apoptosis in rat H9c2 cells assessed as reduction in red fluorescence in presence of indomethacin by confocal microscopy analysis; format: functional, cell-based
# [6] = tested on: H9c2; test: Protection against LPS/hypoxia induced apoptosis in rat H9c2 cells assessed as reduction in green fluorescence in presence of indomethacin by confocal microscopy analysis; format: functional, cell-based
# [7] = tested on: NTR; test: Stability of the compound assessed as NTR (unknown origin) mediated hydrolysis by measuring half life by UV spectrophotometry; format: ADME; conditions: human, NTR enzyme
# [8] = tested on: H9c2; test: Anti-inflammatory activity in LPS/hypoxia induced rat H9c2 cells assessed as reduction of IL-6 protein expression at 10 uM in presence of indomethacin by Western blot analysis; format: functional, cell-based
# [9] = tested on: H9c2; test: Anti-inflammatory activity in LPS/hypoxia induced rat H9c2 cells assessed as reduction of TNF-alpha protein expression at 10 uM in presence of indomethacin by Western blot analysis; format: functional, cell-based
# [10] = tested on: H9c2; test: Anti-inflammatory activity in LPS/hypoxia induced cell injury in rat H9c2 cells assessed as reduction of IL-1beta protein expression at 10 uM in presence of indomethacin by Western blot analysis; format: functional, cell-based
# [11] = tested on: H9c2; test: Anti-inflammatory activity in LPS/hypoxia induced rat H9c2 cells assessed as increase in VEGF expression at 10 uM in presence of indomethacin by Western blot analysis; format: functional, cell-based
# [12] = tested on: H9c2; test: Anti-inflammatory activity in rat H9c2 cells assessed as downregulation of cytochrome C expression at 10 uM by Western blot analysis; format: functional, cell-based
# [13] = tested on: H9c2; test: Anti-inflammatory activity in rat H9c2 cells assessed as downregulation of cytochrome C expression at 10 uM in presence of indomethacin by Western blot analysis; format: functional, cell-based
# [14] = tested on: H9c2; test: Anti-inflammatory activity in rat H9c2 cells assessed as inhibition of endogenous IL-6 protein expression in presence of indomethacin by DAPI staining based immunofluorescence analysis; format: functional, cell-based
# [15] = tested on: H9c2; test: Protection against LPS/hypoxia induced cell injury in rat H9c2 cells assessed as recovery of cell viability in presence of indomethacin by CCK-8 assay (reference value: 69.0%); format: functional
# [16] = tested on: H9c2; test: Protection against LPS/hypoxia induced cell injury in rat H9c2 cells assessed as recovery of cell viability in presence of indomethacin and Na2WO4 by CCK-8 assay; format: functional, cell-based
# [17] = tested on: H9c2; test: Reversal of LPS/hypoxia induced mitochondrial membrane potential loss in rat H9c2 cells in presence of indomethacin by JC-1 dye based flow cytometry analysis; format: functional, cell-based
# [18] = tested on: H9c2; test: Reversal of LPS/hypoxia induced mitochondrial membrane potential loss in rat H9c2 cells assessed as increase in JC-1 polymer morphology in presence of indomethacin by JC-1 dye based flow cytometry analysis; format: functional, cell-based; conditions: time 20.0 min
# [19] = tested on: H9c2; test: Reversal of ATP level in LPS/hypoxia induced rat H9c2 cells in presence of indomethacin by multimode plate reader analysis (reference value: 21.37 nmol/mg); format: functional
# [20] = tested on: H9c2; test: Reversal of ATP level in LPS/hypoxia induced rat H9c2 cells in presence of indomethacin and Na2WO4 by multimode plate reader analysis; format: functional, cell-based
# [21] = tested on: H9c2; test: Inhibition of intracellular ROS level in LPS/hypoxia induced rat H9c2 cells in presence of indomethacin by DCFH-DA probe based fluorescence confocal microscopy analysis; format: functional, cell-based
# [22] = tested on: H9c2; test: Inhibition of intracellular ROS level in LPS/hypoxia induced rat H9c2 cells in presence of indomethacin and Na2WO4 by DCFH-DA probe based fluorescence confocal microscopy analysis; format: functional, cell-based
# [23] = tested on: Rattus norvegicus; test: Antiinflammatory activity against LPS/talc powder induced pericarditic Wistar rat assessed as reduction in torsion T wave inversion at 20 mg/kg, ip pretreated for 2 hrs followed by LPS/tal powder stimulation measured after 48 hrs in presence of indomethacin by ECG analysis; format: functional, organism-based; conditions: time 50.0 hrs
# [24] = tested on: Rattus norvegicus; test: Antiinflammatory activity against LPS/talc powder induced pericarditic Wistar rat assessed as reduction in U wave flattening at 20 mg/kg, ip pretreated for 2 hrs followed by LPS/tal powder stimulation measured after 48 hrs in presence of indomethacin by ECG analysis; format: functional, organism-based; conditions: time 50.0 hrs
# [25] = tested on: Rattus norvegicus; test: Antiinflammatory activity against LPS/talc powder induced pericarditic Wistar rat assessed as reduction in heart swelling at 20 mg/kg, ip pretreated for 2 hrs followed by LPS/tal powder stimulation measured after 48 hrs in presence of indomethacin; format: functional, organism-based; conditions: time 50.0 hrs
# [26] = tested on: Rattus norvegicus; test: Antiinflammatory activity against LPS/talc powder induced pericarditic Wistar rat assessed as elimination of pericardial effusion at 20 mg/kg, ip pretreated for 2 hrs followed by LPS/tal powder stimulation measured after 48 hrs in presence of indomethacin; format: functional, organism-based; conditions: time 50.0 hrs
# [27] = tested on: Rattus norvegicus; test: Antiinflammatory activity in LPS/talc powder induced pericarditic Wistar rat assessed as increase in CK-MB level in serum at 20 mg/kg, ip pretreated for 2 hrs followed by LPS/tal powder stimulation measured after 48 hrs in presence of indomethacin (reference value: 4140+/-256.23 U/L); format: functional; conditions: time 50 hrs
# [28] = tested on: Rattus norvegicus; test: Antiinflammatory activity in LPS/talc powder induced pericarditic Wistar rat assessed as increase in cTNI level in serum at 20 mg/kg, ip pretreated for 2 hrs followed by LPS/tal powder stimulation measured after 48 hrs in presence of indomethacin (reference value: 0.167+/-0.025 ng/ml); format: functional; conditions: time 50 hrs
# [29] = Toxicity in Wistar rat assessed as change in ALT level in presence of indomethacin; conditions: in vivo
# [30] = Toxicity in Wistar rat assessed as change in CRE level in presence of indomethacin; conditions: in vivo
# [31] = Toxicity in Wistar rat assessed as change in BUN level in presence of indomethacin; conditions: in vivo
smiles,measurement,setting,value
NS(=O)(=O)c1ccccc1 [BENZENESULFONAMIDE],IC50,[1],9.2 µM
NS(=O)(=O)c1nnc(NC(=O)CCCCc2cn(CC(=O)O)nn2)s1,Activity,[2],23.78%
same,Activity,[3],9.61%
same,Activity,[4],Active
same,Activity,[5],Active
same,Activity,[6],Active
same,half-life,[7],8.3 min
same,Activity,[8],Active
same,Activity,[9],Active
same,Activity,[10],Active
same,Activity,[11],Active
same,Activity,[12],Active
same,Activity,[13],Active
same,Activity,[14],Active
same,Activity,[15],91.8%
same,Activity,[16],Active
same,Activity,[17],Active
same,Activity,[18],Active
same,Activity,[19],47.52 nmol/mg
same,Activity,[20],Active
same,inhibition,[21],Active
same,inhibition,[22],Active
same,Activity,[23],Active
same,Activity,[24],Active
same,Activity,[25],Active
same,Activity,[26],Active
same,Activity,[27],2620 U/L
same,Activity,[28],0.121 ng/mL
same,Activity,[29],Toxic
same,Activity,[30],Toxic
same,Activity,[31],Toxic

# From ChEMBL document CHEMBL5104193, “Hypoxia-Activated Prodrugs with Dual COX-2/CA Inhibitory Effects on Attenuating Cardiac Inflammation under Hypoxia” (J Med Chem, 2022)
